In series [1] the target is Proto-oncogene tyrosine-protein kinase Src (Homo sapiens, UniProt P12931). As to the kind of experiment: Inhibition of SRC at 5 uM ATP.
For series [2], the target named is T1, Protein kinase C epsilon type (Homo sapiens, UniProt Q02156).
T1 sequence (Q02156 whole entry): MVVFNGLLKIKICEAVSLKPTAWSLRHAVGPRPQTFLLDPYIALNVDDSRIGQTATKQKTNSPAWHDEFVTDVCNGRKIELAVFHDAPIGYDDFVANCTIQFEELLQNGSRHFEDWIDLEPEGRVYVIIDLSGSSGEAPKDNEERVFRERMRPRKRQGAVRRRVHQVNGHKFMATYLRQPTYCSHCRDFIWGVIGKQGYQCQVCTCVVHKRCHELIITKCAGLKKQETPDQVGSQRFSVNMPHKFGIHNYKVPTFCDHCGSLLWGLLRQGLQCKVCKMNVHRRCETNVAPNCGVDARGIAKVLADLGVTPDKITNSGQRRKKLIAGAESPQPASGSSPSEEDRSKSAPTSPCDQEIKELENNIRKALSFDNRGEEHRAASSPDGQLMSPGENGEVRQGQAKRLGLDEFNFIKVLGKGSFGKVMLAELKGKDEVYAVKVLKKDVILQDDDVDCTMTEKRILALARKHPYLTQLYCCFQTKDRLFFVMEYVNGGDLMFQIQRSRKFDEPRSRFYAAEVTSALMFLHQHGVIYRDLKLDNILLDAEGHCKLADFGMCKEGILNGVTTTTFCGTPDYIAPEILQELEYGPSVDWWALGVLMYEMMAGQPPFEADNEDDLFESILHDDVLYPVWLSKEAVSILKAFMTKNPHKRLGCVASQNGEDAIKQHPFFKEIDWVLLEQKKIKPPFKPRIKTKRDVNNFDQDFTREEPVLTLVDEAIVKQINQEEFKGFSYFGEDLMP
As to the kind of experiment: Inhibition of PKC epsilon at 5 uM ATP.

Series [3] deals with Casein kinase II (Homo sapiens, UniProt P19784+P67870+P68400). As to the kind of experiment: Inhibition of CK2 at 5 uM ATP. The class given is protein-complex assay.
The test system of series [4] is MIA PaCa-2. As to the kind of experiment: Antiproliferative activity against human MiaPaCa2 cells by MTT assay. In kind it is functional, cell-based. For orientation: Formazan colour is commonly taken as a measure of viable cells.
For series [5], the target named is cAMP-dependent protein kinase (PKA) (Homo sapiens, UniProt P22694+P17612+P22612). As to the kind of experiment: Inhibition of PKA at 5 uM ATP. In kind it is protein assay.
The target of series [6] is RAC-beta serine/threonine-protein kinase (Homo sapiens, UniProt P31751). The series is described as follows: Inhibition of Akt2 at 5 uM ATP.
Series [7] concerns the target Protein kinase C gamma type (Homo sapiens, UniProt P05129). As to the kind of experiment: Inhibition of PKC gamma at 5 uM ATP.
Series [8] concerns the target RAC-gamma serine/threonine-protein kinase (Homo sapiens, UniProt Q9Y243). As to the kind of experiment: Inhibition of Akt3 at 5 uM ATP.
Series [9] deals with Cyclin-dependent kinase 1 (Homo sapiens, UniProt P06493). As to the kind of experiment: Inhibition of CDK1 at 5 uM ATP.
Series [10] deals with Mitogen-activated protein kinase 1 (Homo sapiens, UniProt P28482). The series is described as follows: Inhibition of ERK2 at 5 uM ATP.
Series [11] can be described thus: Bioavailability in CD1 mouse at 10 mg/kg, po. The class given is ADME, organism-based. The note with it: in vivo.
Series [12] can be described thus: Clearance in CD1 mouse at 3 mg/kg, iv or 10 mg/kg, po or 30 mg, sc. To be noted: in vivo. Further details: unit not given here. In kind it is ADME, organism-based.
Series [13] can be described thus: Half life in CD1 mouse at 3 mg/kg, iv. The class given is ADME, organism-based. The note with it: in vivo. Further details: dose 3 mg/kg, route intravenous.
Series [14] is described as follows: AUC in CD1 mouse at 10 mg/kg, po. The note with it: plasma. In kind it is ADME, organism-based. Further details: dose 10 mg/kg, route oral.
Series [15] can be described thus: Volume of distribution in CD1 mouse at 3 mg/kg, iv or 10 mg/kg, po or 30 mg, sc. To be noted: in vivo, read-out: Vdss. In kind it is ADME, organism-based.
The nature of series [16]: AUC in CD1 mouse at 30 mg, sc. The class given is ADME, organism-based. The note with it: plasma.
Series [17] has as its target RAC-alpha serine/threonine-protein kinase (Homo sapiens, UniProt P31749). The series is described as follows: Inhibition of GSK3 phosphorylation. In kind it is functional.
A short description of series [18]: Antiproliferative activity against mouse FL5.12 cells overexpressing Akt1 by MTT assay.

Chain of RAC-alpha serine/threonine-protein kinase (P31749 whole entry): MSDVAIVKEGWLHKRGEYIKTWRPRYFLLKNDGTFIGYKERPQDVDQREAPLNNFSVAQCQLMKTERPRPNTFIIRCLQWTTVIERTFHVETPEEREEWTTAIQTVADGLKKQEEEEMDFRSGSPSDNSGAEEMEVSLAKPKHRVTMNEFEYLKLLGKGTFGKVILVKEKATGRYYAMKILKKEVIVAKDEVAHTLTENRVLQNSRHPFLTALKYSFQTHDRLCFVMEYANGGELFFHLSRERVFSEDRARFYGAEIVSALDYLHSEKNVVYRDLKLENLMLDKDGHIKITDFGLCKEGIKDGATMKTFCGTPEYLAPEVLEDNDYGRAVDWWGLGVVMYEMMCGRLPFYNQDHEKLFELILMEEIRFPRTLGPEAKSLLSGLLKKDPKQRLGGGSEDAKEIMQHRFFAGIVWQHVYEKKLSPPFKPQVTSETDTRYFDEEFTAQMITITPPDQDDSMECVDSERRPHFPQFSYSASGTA
Chain of Mitogen-activated protein kinase 1 (P28482 whole entry): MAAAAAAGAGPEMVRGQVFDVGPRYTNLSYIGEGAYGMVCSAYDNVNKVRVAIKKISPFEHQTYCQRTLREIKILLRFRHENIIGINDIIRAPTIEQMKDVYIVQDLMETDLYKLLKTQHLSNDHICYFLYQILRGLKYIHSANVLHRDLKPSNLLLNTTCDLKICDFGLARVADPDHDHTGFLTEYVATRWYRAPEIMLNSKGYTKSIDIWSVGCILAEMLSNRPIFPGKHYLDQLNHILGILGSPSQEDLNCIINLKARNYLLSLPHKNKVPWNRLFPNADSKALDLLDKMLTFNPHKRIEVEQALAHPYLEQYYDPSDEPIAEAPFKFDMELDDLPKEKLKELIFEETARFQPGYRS
Chain of RAC-beta serine/threonine-protein kinase (P31751 whole entry): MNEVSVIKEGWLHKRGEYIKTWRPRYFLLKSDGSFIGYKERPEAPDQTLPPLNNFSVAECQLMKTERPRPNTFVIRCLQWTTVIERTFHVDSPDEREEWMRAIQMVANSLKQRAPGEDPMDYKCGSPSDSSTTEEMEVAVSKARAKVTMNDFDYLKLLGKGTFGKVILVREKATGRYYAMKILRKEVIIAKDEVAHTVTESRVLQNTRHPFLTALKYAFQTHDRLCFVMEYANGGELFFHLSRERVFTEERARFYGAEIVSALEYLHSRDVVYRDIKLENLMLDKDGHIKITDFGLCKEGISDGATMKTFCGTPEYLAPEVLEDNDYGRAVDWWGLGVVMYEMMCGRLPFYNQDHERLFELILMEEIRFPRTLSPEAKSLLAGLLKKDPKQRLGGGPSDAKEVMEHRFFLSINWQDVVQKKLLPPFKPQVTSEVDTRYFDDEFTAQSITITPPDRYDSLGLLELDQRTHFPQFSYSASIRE
Chain of Proto-oncogene tyrosine-protein kinase Src (P12931 2-536 limits assumed): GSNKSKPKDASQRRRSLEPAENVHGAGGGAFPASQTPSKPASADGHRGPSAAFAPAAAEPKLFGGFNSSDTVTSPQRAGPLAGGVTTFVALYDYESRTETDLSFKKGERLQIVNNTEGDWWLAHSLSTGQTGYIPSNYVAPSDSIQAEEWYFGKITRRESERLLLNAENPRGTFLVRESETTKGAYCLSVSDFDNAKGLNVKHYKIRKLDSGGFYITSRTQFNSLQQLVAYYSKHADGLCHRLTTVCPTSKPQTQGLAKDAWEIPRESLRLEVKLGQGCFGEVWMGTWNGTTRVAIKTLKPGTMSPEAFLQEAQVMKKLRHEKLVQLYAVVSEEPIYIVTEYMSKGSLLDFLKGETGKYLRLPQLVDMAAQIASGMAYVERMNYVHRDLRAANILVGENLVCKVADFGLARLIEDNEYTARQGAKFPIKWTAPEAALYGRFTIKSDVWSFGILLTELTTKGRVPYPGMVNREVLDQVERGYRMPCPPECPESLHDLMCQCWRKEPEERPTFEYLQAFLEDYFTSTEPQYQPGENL
Chain of Casein kinase II (P67870 whole entry): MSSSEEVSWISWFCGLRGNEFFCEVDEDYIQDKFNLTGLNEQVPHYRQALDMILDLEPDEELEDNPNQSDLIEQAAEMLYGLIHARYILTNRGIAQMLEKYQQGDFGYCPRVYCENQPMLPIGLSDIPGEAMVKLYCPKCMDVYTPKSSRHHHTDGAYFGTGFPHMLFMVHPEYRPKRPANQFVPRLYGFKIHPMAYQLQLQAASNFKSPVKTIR
Chain of Casein kinase II (P68400 whole entry): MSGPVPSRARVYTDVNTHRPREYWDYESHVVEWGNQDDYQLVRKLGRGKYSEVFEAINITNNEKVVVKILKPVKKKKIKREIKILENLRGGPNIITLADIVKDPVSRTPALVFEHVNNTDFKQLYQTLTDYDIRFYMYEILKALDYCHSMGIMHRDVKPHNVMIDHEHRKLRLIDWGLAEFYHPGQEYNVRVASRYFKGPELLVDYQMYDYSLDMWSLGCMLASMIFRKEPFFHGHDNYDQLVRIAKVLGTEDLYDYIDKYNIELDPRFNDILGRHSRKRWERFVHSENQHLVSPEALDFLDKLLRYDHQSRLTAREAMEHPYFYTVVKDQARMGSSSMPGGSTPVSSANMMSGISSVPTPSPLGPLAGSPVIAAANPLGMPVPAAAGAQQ
Chain of Casein kinase II (P19784 whole entry): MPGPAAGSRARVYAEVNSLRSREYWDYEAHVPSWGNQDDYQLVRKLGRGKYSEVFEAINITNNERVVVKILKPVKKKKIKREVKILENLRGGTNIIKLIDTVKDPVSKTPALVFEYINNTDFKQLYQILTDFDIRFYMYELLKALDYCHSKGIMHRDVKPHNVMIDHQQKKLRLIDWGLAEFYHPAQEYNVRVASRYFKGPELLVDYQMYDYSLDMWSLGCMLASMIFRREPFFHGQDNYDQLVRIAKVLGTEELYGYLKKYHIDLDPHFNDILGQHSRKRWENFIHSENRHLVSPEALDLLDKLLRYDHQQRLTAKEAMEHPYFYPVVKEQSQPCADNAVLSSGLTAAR
Chain of RAC-gamma serine/threonine-protein kinase (Q9Y243 whole entry): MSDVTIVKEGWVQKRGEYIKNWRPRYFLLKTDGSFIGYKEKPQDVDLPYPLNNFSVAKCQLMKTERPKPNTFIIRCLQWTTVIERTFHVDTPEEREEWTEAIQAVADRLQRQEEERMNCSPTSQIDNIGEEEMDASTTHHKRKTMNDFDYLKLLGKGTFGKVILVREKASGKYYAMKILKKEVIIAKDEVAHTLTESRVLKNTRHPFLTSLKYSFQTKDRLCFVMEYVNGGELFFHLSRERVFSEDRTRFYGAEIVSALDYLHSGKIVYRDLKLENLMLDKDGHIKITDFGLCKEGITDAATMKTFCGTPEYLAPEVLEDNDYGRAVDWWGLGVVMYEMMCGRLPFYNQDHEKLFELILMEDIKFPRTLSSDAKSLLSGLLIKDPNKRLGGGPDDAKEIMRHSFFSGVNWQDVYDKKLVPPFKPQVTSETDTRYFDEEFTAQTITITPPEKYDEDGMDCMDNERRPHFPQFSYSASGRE
Chain of Cyclin-dependent kinase 1 (P06493 whole entry): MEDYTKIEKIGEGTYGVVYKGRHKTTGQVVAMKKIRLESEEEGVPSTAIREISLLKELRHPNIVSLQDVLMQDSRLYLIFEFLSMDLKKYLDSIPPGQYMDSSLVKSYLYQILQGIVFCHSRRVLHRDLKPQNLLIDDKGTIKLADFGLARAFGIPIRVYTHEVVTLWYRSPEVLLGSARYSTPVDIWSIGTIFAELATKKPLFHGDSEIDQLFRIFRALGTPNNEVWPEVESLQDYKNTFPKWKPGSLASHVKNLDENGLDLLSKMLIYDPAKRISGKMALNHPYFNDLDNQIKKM

The IC50 is the concentration at which inhibition is half-maximal. As for `C#Cc1ncc(OC[C@@H](N)Cc2c[nH]c3ccccc23)cc1-c1ccc2cnccc2c1`, the IC50 in [1] was above 50000 nM; in [2] it was 8900 nM; in [3], above 50000 nM; in series [4], 10800 nM; in series [5] it was 1 nM; in series [6], 5 nM. The IC50 in [7] amounted to 260 nM; in series [8], 39 nM; in [9], 4900 nM; in series [10] it was 27200 nM.
The term bioavailability denotes the share of a dose that reaches the circulation, judged against a reference dose that is usually intravenous. One may read the half-life as the time in which the quantity being followed falls by half. What is called AUC is the area under the concentration-time curve, a measure of exposure. The compound `N[C@H](COc1cncc(-c2ccc3c(Cl)nccc3c2)c1)Cc1c[nH]c2ccccc12` yielded a bioavailability in series [11] of 51%. This compound gave a clearance in [12] of 21.7. Further, the half-life in series [13] is 5 h. Also, in [14], the AUC was determined as 3900 ng·h/mL. In series [15], the Vd came to 9.5 L/kg.
The matching figures for `Cc1cc(-c2cncc(OC[C@@H](N)Cc3c[nH]c4ccccc34)c2)cc2ccncc12`: 35%, 41.7, 4.5 h, 1500 ng·h/mL and 16.4 L/kg.
With `N[C@H](COc1cncc(-c2ccc3cnc(F)cc3c2)c1)Cc1c[nH]c2ccccc12`, the IC50 in [1] turned out to be 18000 nM; in series [4], 3180 nM; in series [5], 48 nM; in series [9] it was 3400 nM.
With `Nc1cc2cc(-c3cncc(OC[C@@H](N)Cc4c[nH]c5ccccc45)c3)ccc2cn1`, the bioavailability in series [11] was 0%. In addition, the clearance in series [12] was 202. The IC50 in [1] is 480 nM; in series [2], 8300 nM; in series [3] it was 620 nM; in [4] it was 100 nM; in [5], 8 nM; in series [6] it was 21 nM. Further, the IC50 in series [7] was found to be 31 nM; in [17], 930 nM; in series [8], 76 nM; in [9] it was 22 nM; in [10] it was 1200 nM. Besides, the AUC in series [16] came to 6900 ng·h/mL. For the same compound, the half-life in series [13] was 0.7 h. For the same compound, the Vd in [15] turned out to be 11.8 L/kg.
As to `N[C@H](COc1cncc(-c2ccc3cnc(Cl)cc3c2)c1)Cc1c[nH]c2ccccc12`, the bioavailability in series [11] is 27%. In series [12], this compound gave a clearance of 90. The compound further showed a half-life in series [13] of 2 h. The compound also showed an AUC in [14] of 910 ng·h/mL. In addition, the Vd in series [15] amounted to 15.5 L/kg.
As to `N[C@H](COc1cnc(Cl)c(-c2ccc3cnccc3c2)c1)Cc1c[nH]c2ccccc12`, the IC50 was 12100 nM in series [1]; above 5000 nM in series [2]; 12700 nM in [3]; 13300 nM in series [4]; 5 nM in series [5]; 5 nM in [6]. For the same compound, the IC50 stood at 540 nM in [7]; 3000 nM in [17]; 73 nM in series [8]; 870 nM in [9]; 37000 nM in series [10].
Compound `N[C@H](COc1cncc(-c2ccc3cnccc3c2)c1)Cc1c[nH]c2ccccc12` yielded a bioavailability in series [11] of 0%. The IC50 in [1] is 2000 nM; in series [2], 6100 nM; in series [18], 420 nM; in series [17] it was 1500 nM. For the same compound, in series [16], the exposure (AUC) turned out to be 7600 ng·h/mL. Further, in series [13], the half-life was 0.3 h. In addition, in series [15], the Vd was found to be 7 L/kg.

The values above are taken from ChEMBL document CHEMBL1147830, “Isoquinoline-pyridine-based protein kinase B/Akt antagonists: SAR and in vivo antitumor activity” (Bioorg Med Chem Lett, 2006).
